# From the supplement of paper PMC10307832
# Legend:
# Assay in all cases: relative viability (nuclei count vs DMSO), 5 days (fraction); higher = more cells survive
# [1] = compound: C(C(=O)C(=O)O)Br [Bromopyruvate] + CC(=O)Nc1cccc(-n2c(=O)n(C3CC3)c(=O)c3c(Nc4ccc(I)cc4F)n(C)c(=O)c(C)c32)c1 [Trametinib] (partner 0.02 µM)
# Outline: (§1)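 Relative viability was taken as the ratio of nuclei in treated wells to nuclei in vehicle wells. Lung cancer cell lines in 1536-well plates received compounds by pin tool one day after seeding, either one drug alone or a fixed anchor-drug dose plus five library-drug doses (not always all listed) in √10 steps. Nuclei were counted on 4× images after 5 days of treatment, and values are medians of duplicate plates.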
# [2] = compound: C(C(=O)C(=O)O)Br [Bromopyruvate] + Cc1nc(NC(=O)N2CCC[C@H]2C(N)=O)sc1-c1ccnc(C(C)(C)C(F)(F)F)c1 [Alpelisib] (partner 2 µM)
# Outline: as §1
# [3] = compound: C(C(=O)C(=O)O)Br [Bromopyruvate] + N=C(N)NC(=N)NCCc1ccccc1 [Phenformin] (partner 250 µM)
# Outline: as §1
# [4] = compound: CC(O)(CS(=O)(=O)c1ccc(F)cc1)C(=O)Nc1ccc(C#N)c(C(F)(F)F)c1 [Bicalutamide] + O=C(CCCCCCC(=O)Nc1ccccc1)NO [Vorinostat] (partner 1 µM)
# Outline: as §1
Cell Line,relative viability ([1]; first compound 1 µM),relative viability ([1]; first compound 3.162 µM),relative viability ([1]; first compound 10 µM),relative viability ([1]; first compound 31.62 µM),relative viability ([1]; first compound 100 µM),relative viability ([2]; first compound 1 µM),relative viability ([2]; first compound 3.162 µM),relative viability ([2]; first compound 10 µM),relative viability ([2]; first compound 31.62 µM),relative viability ([2]; first compound 100 µM),relative viability ([3]; first compound 1 µM),relative viability ([3]; first compound 3.162 µM),relative viability ([3]; first compound 10 µM),relative viability ([3]; first compound 31.62 µM),relative viability ([3]; first compound 100 µM),relative viability ([4]; first compound 0.08 µM),relative viability ([4]; first compound 0.253 µM),relative viability ([4]; first compound 0.8 µM),relative viability ([4]; first compound 2.53 µM)
201T,0.709,0.719,0.709,0.725,0.755,1.02,0.989,0.944,0.998,1.08,0.504,0.489,0.481,0.453,0.455,1.11,0.957,1.05,0.977
A549,,,,,,0.814,0.971,0.834,0.794,0.726,0.17,0.16,0.0997,0.234,0.22,,,,
A-427,0.73,0.766,0.838,0.767,0.771,1.12,1.07,1.09,1.05,1.02,0.417,0.353,0.25,0.335,0.261,0.883,0.9,0.866,0.842
ABC-1,,,,,,0.915,1.04,,1.04,0.878,0.24,0.262,0.271,0.262,0.239,1.06,0.805,1.5,0.947
BEN,1.03,0.983,1.18,0.97,1.2,0.985,1.05,1.15,0.957,1.07,0.279,0.265,0.266,0.262,0.279,0.537,0.719,0.588,0.617
CAL-12T,0.302,0.285,0.393,0.347,0.307,1.17,1.49,1.38,1.25,0.952,0.556,0.491,0.667,0.58,0.529,0.945,0.607,0.915,0.623
COR-L23,0.585,0.652,0.651,0.582,0.544,0.771,0.849,0.9,0.665,0.405,0.433,0.435,0.459,0.411,0.227,0.443,0.486,0.411,0.267
COR-L 105,0.432,0.449,0.417,0.422,0.329,0.975,1.34,1.23,1.02,0.768,0.488,0.438,0.484,0.405,0.391,0.983,0.712,0.944,0.717
Calu-6,,,,,,1.09,1.02,1.05,0.952,0.615,,,,,,,,,
ChaGo-K-1,0.887,0.911,0.963,0.855,0.903,,,,,,0.581,0.531,0.511,0.473,0.411,0.763,0.691,0.887,0.772
EBC-1,,,,,,0.888,0.82,0.802,0.79,0.747,,,,,,,,,
EKVX,0.368,0.381,0.334,0.448,0.378,0.875,0.815,1.01,0.86,0.943,0.256,0.24,0.243,0.246,0.233,0.814,0.656,0.711,0.713
EMC-BAC-2,0.753,1.01,0.985,,0.959,0.658,0.771,0.897,0.747,0.826,0.517,0.519,0.637,0.548,0.571,0.5,0.434,0.833,0.289
EPLC-272H,0.266,0.278,0.341,0.302,0.289,1.05,1.17,0.941,0.806,1.04,0.31,0.314,0.309,0.367,0.347,0.437,0.401,0.573,0.479
H3255,0.55,0.547,0.647,0.574,0.718,0.765,0.647,0.86,0.856,0.783,0.365,0.421,0.432,0.399,0.37,0.808,0.755,0.969,0.69
HARA,0.709,0.814,,0.633,1,0.792,0.868,1.04,0.802,0.858,0.496,0.431,0.503,0.483,0.476,0.469,0.477,0.586,0.517
HCC-15,0.349,0.385,0.386,0.369,0.393,0.929,0.947,0.962,0.852,0.8,0.472,0.5,0.521,0.466,0.456,0.746,0.761,0.954,0.899
HCC-44,1.08,1.02,1.04,1.11,1,0.781,0.83,0.859,0.916,0.863,0.346,0.191,0.185,0.184,0.16,1.12,1.21,1.1,1.12
HCC-78,0.746,0.681,0.955,0.71,0.72,0.305,0.354,0.421,0.452,0.373,0.644,0.719,0.759,0.516,0.657,0.489,0.436,0.462,0.447
HCC-366,0.361,0.322,0.41,0.359,0.322,0.494,0.403,0.503,0.519,0.41,0.592,0.649,0.635,0.597,0.648,0.368,0.331,0.52,0.134
